# Source: patent US7238507B2, “Aspergillus ochraceus 11 alpha hydroxylase and oxidoreductase” (priority 2000, dated 2007)
# Columns and labels:
# [1] = tested on: Aspergillus ochraceus 11 alpha hydroxylase; assay: HPLC assay of conversion of androstenedione to 11α-hydroxyandrostenedione by subcellular fractions of baculovirus-infected Sf9 cells co-expressing 11 alpha hydroxylase and human oxidoreductase; assay type: biochemical; conditions: 11 alpha hydroxylase co-expressed in Sf-9 insect cells with human oxidoreductase
# Protocol: Microsomal and mitochondrial subcellular fractions were prepared from insect cells co-infected with recombinant baculoviruses expressing recombinant Aspergillus ochraceus 11 alpha hydroxylase and human oxidoreductase cloned from HepG2 cell RNA. The subcellular fractions were incubated with 250 μM androstenedione (AD) in the presence of an NADPH-generating system for 120 minutes, and the resulting products were separated by HPLC and monitored by ultraviolet detection at 247 nm. Hydroxlase activity was found in the microsomal fraction, as expected, but also appeared in the mitochondrial fraction. […] Panel A illustrates a reaction carried out using enzyme prepared from a mitochondrial fraction. The peak in panel A that elutes after AD appears to be testosterone. When a microsomal fraction was used, almost as much AD was converted to 11 alpha hydroxy AD, but relatively more testosterone was also produced. Panel B illustrates the same reaction carried out for 120 minutes without a source of enzyme. Panel C illustrates an HPLC tracing with 11α-hydroxyandrostenedione standard added to incubation buffer.
# Sf9 cells were co-infected with virus particles that contained the steroid 11 alpha hydroxylase cDNA and a separate virus containing a human NADPH P450-oxidoreductase. Both viruses were added at a multiplicity of infection (MOI) ratio of 0.1:0.01 (11 aOH to oxr). […]
# [2] = tested on: Aspergillus ochraceus spores; assay: 11 α-hydroxylation of canrenone by A. ochraceus spores, media extract analysed by HPLC; assay type: cell-based; conditions: spores incubated approximately 26 hours at 30° C. with 0.1 g canrenone in 400 ml; data not shown
# Protocol: Aspergillus ochraceus ATCC 18500 stock culture (50 ul) was grown for 3-4 days on plates containing sporulation medium: 50 g/L molasses, 5 g/L cornsteep liquid, 5 g/L KH2PO4, 25 g/L NaCl, 25 g/L glucose, 20 g/L agar, and 0.4 g/L progesterone, pH 5.8. Progesterone was included in the media to induce the steroid 11 α-hydroxylase. Spores were scraped from the plates into 5 to 7 ml saline, washed in saline, collected by centrifugation, and suspended in saline containing 15% glycerol. The spores were frozen on dry ice and stored at −80° C. Approximately 0.8 g spores were incubated at 30° C. in a 1 liter flask containing 400 ml 1% glucose, 50 mM KH2PO4 and 0.1 g canrenone, pH 7.0. This treatment prior to spore disruption has three benefits: (1) to induce the steroid 11 α-hydroxylase by incubation with canrenone; (2) to determine whether the spores were catalyzing the 11 α-hydroxylation of canrenone; (3) and to soften the spore wall. After approximately 26 hours of incubating with shaking at 30° C. to provide better aeration, the spores were collected by centrifugation. […]
# Approximately 160 ml of media from the spore induction was extracted three times with 70 ml ethyl acetate to collect the steroid substrate and products. […] The residue was dissolved in 8 ml methanol so that the final concentration of canrenone was approximately 15 mM (assuming quantitative recovery). […]
structure (smiles),measurement,setting,value
"C[C@]12CCC(=O)C=C1CC[C@@H]1[C@@H]2CC[C@]2(C)C(=O)CC[C@@H]12 [AD, Androst-4-ene-3,17-dione(8CI,9CI)]",conversion of the steroid substrate to 11 alpha-hydroxy-AD as determined by HPLC analysis,[1],successfully catalyzed the conversion
"C[C@]12CCC(=O)C=C1C=C[C@@H]1C2CC[C@@]2(C)C1CC[C@@]21CCC(=O)O1 (stereo partly drawn) [canrenone, Pregna-4,6-diene-21-carboxylic acid,17-hydroxy-3-oxo-,γ-lactone, (17α)-(9CI)]","11 α-hydroxylation of canrenone, HPLC of media extract monitored at 254 nm",[2],exhibited a component with the same retention time as the 11 α-hydroxy canrenone standard
